# Assay results published in ChEMBL document CHEMBL4715697, “Synthesis and biological activity of benzamide DNA minor groove binders” (2016).
# Tests used:
# Type in all cases: functional
# NCI-H226 = assay: Growth inhibition of human NCI-H226 cells assessed as cell growth at 100 uM incubated for 48 hrs by sulforhodamine B assay relative to control; conditions: read-out: Activity
# BT-549 [1] = assay: Growth inhibition of human BT-549 cells assessed as cell growth at 0.1 uM incubated for 48 hrs by sulforhodamine B assay relative to control; conditions: read-out: Activity
# MDA-MB-231 = assay: Growth inhibition of human MDA-MB-231 cells assessed as cell growth at 0.01 uM incubated for 48 hrs by sulforhodamine B assay relative to control; conditions: read-out: Activity
# SR [2] = assay: Growth inhibition of human SR cells assessed as cell growth at 100 uM incubated for 48 hrs by sulforhodamine B assay relative to control; conditions: read-out: Activity
# HCC 2998 [3] = assay: Growth inhibition of human HCC 2998 cells assessed as cell growth at 1 uM incubated for 48 hrs by sulforhodamine B assay relative to control; conditions: read-out: Activity
# OVCAR-5 = assay: Growth inhibition of human OVCAR-5 cells assessed as cell growth at 0.1 uM incubated for 48 hrs by sulforhodamine B assay relative to control; conditions: read-out: Activity
# OVCAR-8 [4] = assay: Growth inhibition of human OVCAR-8 cells assessed as cell growth at 1 uM incubated for 48 hrs by sulforhodamine B assay relative to control; conditions: read-out: Activity
# SF-539 [5] = assay: Growth inhibition of human SF-539 cells assessed as cell growth at 0.01 uM incubated for 48 hrs by sulforhodamine B assay relative to control; conditions: read-out: Activity
# BT-549 [6] = assay: Growth inhibition of human BT-549 cells incubated for 48 hrs by sulforhodamine B assay
# UACC-257 = assay: Growth inhibition of human UACC-257 cells assessed as cell growth at 0.1 uM incubated for 48 hrs by sulforhodamine B assay relative to control; conditions: read-out: Activity
# DU-145 = assay: Growth inhibition of human DU-145 cells assessed as cell growth at 1 uM incubated for 48 hrs by sulforhodamine B assay relative to control; conditions: read-out: Activity
# SR [7] = assay: Growth inhibition of human SR cells incubated for 48 hrs by sulforhodamine B assay
# SF-539 [8] = assay: Growth inhibition of human SF-539 cells assessed as cell growth at 0.1 uM incubated for 48 hrs by sulforhodamine B assay relative to control; conditions: read-out: Activity
# ACHN = assay: Growth inhibition of human ACHN cells assessed as cell growth at 0.1 uM incubated for 48 hrs by sulforhodamine B assay relative to control; conditions: read-out: Activity
# K562 = assay: Growth inhibition of human K562 cells assessed as cell growth at 100 uM incubated for 48 hrs by sulforhodamine B assay relative to control; conditions: read-out: Activity
# LOX IMVI [9] = assay: Growth inhibition of human LOX IMVI cells assessed as cell growth at 1 uM incubated for 48 hrs by sulforhodamine B assay relative to control; conditions: read-out: Activity
# NCI/ADR-RES = assay: Growth inhibition of human NCI/ADR-RES cells incubated for 48 hrs by sulforhodamine B assay
# SK-OV-3 = assay: Growth inhibition of human SK-OV-3 cells incubated for 48 hrs by sulforhodamine B assay
# IGROV-1 = assay: Growth inhibition of human IGROV-1 cells incubated for 48 hrs by sulforhodamine B assay
# SNB-75 = assay: Growth inhibition of human SNB-75 cells incubated for 48 hrs by sulforhodamine B assay
# HCC 2998 [10] = assay: Growth inhibition of human HCC 2998 cells assessed as cell growth at 0.1 uM incubated for 48 hrs by sulforhodamine B assay relative to control; conditions: read-out: Activity
# CCRF-CEM = assay: Growth inhibition of human CCRF-CEM cells assessed as cell growth at 100 uM incubated for 48 hrs by sulforhodamine B assay relative to control; conditions: read-out: Activity
# HCC 2998 [11] = assay: Growth inhibition of human HCC 2998 cells assessed as cell growth at 100 uM incubated for 48 hrs by sulforhodamine B assay relative to control; conditions: read-out: Activity
# SN12C [12] = assay: Growth inhibition of human SN12C cells incubated for 48 hrs by sulforhodamine B assay
# OVCAR-8 [13] = assay: Growth inhibition of human OVCAR-8 cells incubated for 48 hrs by sulforhodamine B assay
# SR [14] = assay: Growth inhibition of human SR cells assessed as cell growth at 0.01 uM incubated for 48 hrs by sulforhodamine B assay relative to control; conditions: read-out: Activity
# LOX IMVI [15] = assay: Growth inhibition of human LOX IMVI cells assessed as cell growth at 0.01 uM incubated for 48 hrs by sulforhodamine B assay relative to control; conditions: read-out: Activity
# SN12C [16] = assay: Growth inhibition of human SN12C cells assessed as cell growth at 0.01 uM incubated for 48 hrs by sulforhodamine B assay relative to control; conditions: read-out: Activity
# SF-268 = assay: Growth inhibition of human SF-268 cells incubated for 48 hrs by sulforhodamine B assay
# 786-0 = assay: Growth inhibition of human 786-0 cells assessed as cell growth at 1 uM incubated for 48 hrs by sulforhodamine B assay relative to control; conditions: read-out: Activity
# HOP-62 [17] = assay: Growth inhibition of human HOP-62 cells assessed as cell growth at 0.1 uM incubated for 48 hrs by sulforhodamine B assay relative to control; conditions: read-out: Activity
# HOP-62 [18] = assay: Growth inhibition of human HOP-62 cells assessed as cell growth at 0.01 uM incubated for 48 hrs by sulforhodamine B assay relative to control; conditions: read-out: Activity
# Malme-3M = assay: Growth inhibition of human Malme-3M cells assessed as cell growth at 0.01 uM incubated for 48 hrs by sulforhodamine B assay relative to control; conditions: read-out: Activity
# [19] = read-out: LC50 (the source's name)
# [20] = read-out: pLC50 (the source's name) (converted)
structure (smiles),measurement,setting,value
CC(=O)Nc1cc(CCl)cc(NC(=O)c2ccc(C(=O)Nc3cccc(NC(=O)CCCN(C)C)c3)cc2)c1,growth at 100 µM,NCI-H226,87%
same,growth at 0.1 µM,BT-549 [1],103%
same,growth at 0.01 µM,MDA-MB-231,103%
same,growth at 100 µM,SR [2],99%
same,growth at 1 µM,HCC 2998 [3],96%
same,growth at 0.1 µM,OVCAR-5,88%
same,growth at 1 µM,OVCAR-8 [4],101%
same,growth at 0.01 µM,SF-539 [5],98%
same,GI50,BT-549 [6]; read-out: GI50,> 100 µM
same,CC50,BT-549 [6]; [19],> 100 µM
same,TGI,BT-549 [6]; read-out: TGI,> 100 µM
same,GI50,BT-549 [6]; read-out: pGI50 (converted),> 100 µM
same,CC50,BT-549 [6]; [20],> 100 µM
same,TGI,BT-549 [6]; read-out: pTGI,> 100 µM
same,growth at 0.1 µM,UACC-257,93%
same,growth at 1 µM,DU-145,106%
same,GI50,SR [7]; read-out: GI50,> 100 µM
same,CC50,SR [7]; [19],> 100 µM
same,TGI,SR [7]; read-out: TGI,> 100 µM
same,GI50,SR [7]; read-out: pGI50 (converted),> 100 µM
same,CC50,SR [7]; [20],> 100 µM
same,TGI,SR [7]; read-out: pTGI,> 100 µM
same,growth at 0.1 µM,SF-539 [8],103%
same,growth at 0.1 µM,ACHN,101%
same,growth at 100 µM,K562,106%
same,growth at 1 µM,LOX IMVI [9],86%
same,GI50,NCI/ADR-RES; read-out: GI50,> 100 µM
same,CC50,NCI/ADR-RES; [19],> 100 µM
same,TGI,NCI/ADR-RES; read-out: TGI,> 100 µM
same,GI50,NCI/ADR-RES; read-out: pGI50 (converted),> 100 µM
same,CC50,NCI/ADR-RES; [20],> 100 µM
same,TGI,NCI/ADR-RES; read-out: pTGI,> 100 µM
same,GI50,SK-OV-3; read-out: GI50,> 100 µM
same,LC50 (concentration killing 50% of cells),SK-OV-3; read-out: LC50,> 100 µM
same,TGI,SK-OV-3; read-out: TGI,> 100 µM
same,GI50,SK-OV-3; read-out: pGI50 (converted),> 100 µM
same,LC50 (concentration killing 50% of cells),SK-OV-3; read-out: pLC50 (converted),> 100 µM
same,TGI,SK-OV-3; read-out: pTGI,> 100 µM
same,GI50,IGROV-1; read-out: GI50,> 100 µM
same,CC50,IGROV-1; [19],> 100 µM
same,TGI,IGROV-1; read-out: TGI,> 100 µM
same,GI50,IGROV-1; read-out: pGI50 (converted),> 100 µM
same,CC50,IGROV-1; [20],> 100 µM
same,TGI,IGROV-1; read-out: pTGI,> 100 µM
same,GI50,SNB-75; read-out: GI50,> 100 µM
same,LC50,SNB-75; read-out: LC50,> 100 µM
same,TGI,SNB-75; read-out: TGI,> 100 µM
same,GI50,SNB-75; read-out: pGI50 (converted),> 100 µM
same,LC50,SNB-75; read-out: pLC50 (converted),> 100 µM
same,TGI,SNB-75; read-out: pTGI,> 100 µM
same,growth at 0.1 µM,HCC 2998 [10],94%
same,growth at 100 µM,CCRF-CEM,-70%
same,growth at 100 µM,HCC 2998 [11],93%
same,GI50,SN12C [12]; read-out: GI50,> 100 µM
same,CC50,SN12C [12]; [19],> 100 µM
same,TGI,SN12C [12]; read-out: TGI,> 100 µM
same,GI50,SN12C [12]; read-out: pGI50 (converted),> 100 µM
same,CC50,SN12C [12]; [20],> 100 µM
same,TGI,SN12C [12]; read-out: pTGI,> 100 µM
same,GI50,OVCAR-8 [13]; read-out: GI50,> 100 µM
same,CC50,OVCAR-8 [13]; [19],> 100 µM
same,TGI,OVCAR-8 [13]; read-out: TGI,> 100 µM
same,GI50,OVCAR-8 [13]; read-out: pGI50 (converted),> 100 µM
same,CC50,OVCAR-8 [13]; [20],> 100 µM
same,TGI,OVCAR-8 [13]; read-out: pTGI,> 100 µM
same,growth at 0.01 µM,SR [14],96%
same,growth at 0.01 µM,LOX IMVI [15],96%
same,growth at 0.01 µM,SN12C [16],104%
same,GI50,SF-268; read-out: GI50,> 100 µM
same,LC50,SF-268; read-out: LC50,> 100 µM
same,TGI,SF-268; read-out: TGI,> 100 µM
same,GI50,SF-268; read-out: pGI50 (converted),> 100 µM
same,LC50,SF-268; read-out: pLC50 (converted),> 100 µM
same,TGI,SF-268; read-out: pTGI,> 100 µM
same,growth at 1 µM,786-0,105%
same,growth at 0.1 µM,HOP-62 [17],104%
same,growth at 0.01 µM,HOP-62 [18],101%
same,growth at 0.01 µM,Malme-3M,99%
